Results published in article PMC5919688, “Cyclic di-AMP regulation of osmotic homeostasis is essential in Group B Streptococcus” (PLoS Genetics, 2018).

Experiments:
TrkH (Gbs1639) = target: T1, TrkH (Gbs1639) (Streptococcus agalactiae, UniProt Q8DYA0); test: DRaCALA, […]-labelled c-di-AMP, whole E. coli extract; format: binding; conditions: 1 nM 32P-c-di-AMP, 40 mM Tris pH 7.5, 100 mM NaCl, 10 mM MgCl2, room temperature; labelled compound; competition with 200 uM cold nucleotide
T1 construct: gene SAG1590; full length, N-terminal His tag (detected by Western only with the His tag), expressed in E. coli Bli5, whole-cell extract
T1 sequence (Q8DYA0 1-449): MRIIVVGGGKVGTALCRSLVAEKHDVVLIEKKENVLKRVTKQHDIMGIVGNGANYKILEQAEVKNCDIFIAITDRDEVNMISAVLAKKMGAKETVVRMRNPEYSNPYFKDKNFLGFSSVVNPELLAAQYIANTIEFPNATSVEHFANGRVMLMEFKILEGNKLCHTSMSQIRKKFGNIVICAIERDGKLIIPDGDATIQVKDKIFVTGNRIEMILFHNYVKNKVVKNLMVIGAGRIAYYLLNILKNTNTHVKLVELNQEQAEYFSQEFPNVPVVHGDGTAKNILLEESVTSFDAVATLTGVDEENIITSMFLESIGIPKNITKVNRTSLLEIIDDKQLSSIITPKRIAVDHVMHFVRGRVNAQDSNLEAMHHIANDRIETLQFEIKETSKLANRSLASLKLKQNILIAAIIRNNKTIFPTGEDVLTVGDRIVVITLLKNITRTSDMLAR

KtrA (Gbs1678) = target: T2, KtrA (Gbs1678) (Streptococcus agalactiae, UniProt Q8E3S8); test: as above; format: binding; conditions: […]P-c-di-AMP, […] Tris pH […] NaCl, […] MgCl2, room temperature; labelled compound; competition with […] cold nucleotide
T2 construct: full length, N-terminal His or His-MBP tag, expressed in E. coli Bli5, whole-cell extract
T2 sequence (Q8E3S8 1-223): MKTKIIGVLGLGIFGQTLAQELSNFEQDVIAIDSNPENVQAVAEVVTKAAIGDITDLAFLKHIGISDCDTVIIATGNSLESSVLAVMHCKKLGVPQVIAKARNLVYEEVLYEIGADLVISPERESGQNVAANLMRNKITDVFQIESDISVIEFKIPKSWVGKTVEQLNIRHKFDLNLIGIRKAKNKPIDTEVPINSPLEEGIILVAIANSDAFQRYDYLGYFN

DacA (rDacA) = target: T3, DacA (rDacA) (Streptococcus agalactiae, UniProt Q8E051); test: RP-HPLC of c-di-AMP formation; format: biochemical; conditions: 2.5 uM rDacA, 1 mM ATP, 50 mM Tris pH 8.5, 100 mM NaCl, 10 mM MnCl2, 37 C
T3 construct: amino acids 96-243, transmembrane domain deleted, N-terminal 6xHis (pET28a), E. coli Bli5, purified
T3 sequence (Q8E051 96-243): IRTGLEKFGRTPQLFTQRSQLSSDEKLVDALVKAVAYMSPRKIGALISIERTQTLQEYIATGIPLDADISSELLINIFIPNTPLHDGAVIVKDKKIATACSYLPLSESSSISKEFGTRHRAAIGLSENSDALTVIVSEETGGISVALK

BusR (Gbs1201) = target: T4, BusR (Gbs1201) (Streptococcus agalactiae, UniProt I7JWA3); test: DRaCALA, […]-labelled c-di-AMP, whole E. coli extract; format: binding; conditions: 1 nM 32P-c-di-AMP, 40 mM Tris pH 7.5, 100 mM NaCl, 10 mM MgCl2, room temperature; labelled compound; competition with 200 uM cold nucleotide
T4 construct: gene BM110_ORF1201; full length (213 aa), N-terminal His or His-MBP tag, expressed in E. coli Bli5, whole-cell extract
T4 sequence (I7JWA3 1-213): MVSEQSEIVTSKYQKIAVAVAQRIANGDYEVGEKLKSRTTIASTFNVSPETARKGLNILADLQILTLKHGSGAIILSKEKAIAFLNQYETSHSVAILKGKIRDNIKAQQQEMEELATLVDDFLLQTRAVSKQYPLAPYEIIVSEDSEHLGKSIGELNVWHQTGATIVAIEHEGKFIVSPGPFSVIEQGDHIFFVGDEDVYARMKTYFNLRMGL

OpuCA (Gbs0235) = target: T5, OpuCA (Gbs0235) (Streptococcus agalactiae, UniProt Q8E7C0); test: as above; format: binding; conditions: […]P-c-di-AMP, […] Tris pH […] NaCl, […] MgCl2, room temperature; labelled compound; competition with […] cold nucleotide
T5 construct: full length, N-terminal His-MBP tag (signal only with this tag), expressed in E. coli Bli5, whole-cell extract
T5 sequence (Q8E7C0 1-381): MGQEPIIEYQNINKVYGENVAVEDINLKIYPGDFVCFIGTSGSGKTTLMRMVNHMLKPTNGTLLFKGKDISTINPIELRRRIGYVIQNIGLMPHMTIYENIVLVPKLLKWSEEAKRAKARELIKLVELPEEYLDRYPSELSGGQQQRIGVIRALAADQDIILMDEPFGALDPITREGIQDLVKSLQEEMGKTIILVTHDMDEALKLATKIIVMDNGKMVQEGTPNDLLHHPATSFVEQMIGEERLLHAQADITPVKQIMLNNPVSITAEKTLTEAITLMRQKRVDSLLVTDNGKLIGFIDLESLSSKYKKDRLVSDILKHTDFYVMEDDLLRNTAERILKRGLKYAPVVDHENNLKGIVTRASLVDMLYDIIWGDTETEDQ

[1] = system: T6, BusR (rBusR) (Streptococcus agalactiae NEM316), ORF:6b20ee22; test: EMSA; conditions: 25 mM Na2HPO4/NaH2PO4 pH 8, 50 mM NaCl, 2 mM MgCl2, 1 mM DTT, 10% glycerol, 0.1 ug/ul poly(dI-dC), 0.02 ug/ul BSA, 20 min room temperature; 6% PAGE at 4 C
T6 sequence: T4 sequence (I7JWA3 1-213)

Row | Compound | DRaCALA, 32P-labelled c-di-AMP, whole E. coli extract (TrkH (Gbs1639)) | DRaCALA, 32P-labelled c-di-AMP, whole E. coli extract (KtrA (Gbs1678)) | RP-HPLC of c-di-AMP formation (DacA (rDacA)) | DRaCALA, 32P-labelled c-di-AMP, whole E. coli extract (BusR (Gbs1201)) | DRaCALA, 32P-labelled c-di-AMP, whole E. coli extract (OpuCA (Gbs0235)) | binding [1]
1 | Nc1ncnc2c1ncn2[C@@H]1O[C@@H]2COP(=O)(O)O[C@H]3[C@@H](O)[C@H](n4cnc5c(N)ncnc54)O[C@@H]3COP(=O)(O)O[C@H]2[C@H]1O [c-di-AMP] | C-di-AMP binds to four proteins: KtrA (Gbs1678), TrkH (Gbs1639) | C-di-AMP binds to four proteins: KtrA (Gbs1678) | the purified recombinant DacA protein produces c-di-AMP from two molecules of ATP | C-di-AMP binds to four proteins: KtrA (Gbs1678), TrkH (Gbs1639), OpuCA (Gbs0235) and Gbs1201 | C-di-AMP binds to four proteins: KtrA (Gbs1678), TrkH (Gbs1639), OpuCA (Gbs0235) | –
2 | Nc1ncnc2c1ncn2[C@@H]1O[C@H](COP(=O)(O)OP(=O)(O)OP(=O)(O)O)[C@@H](O)[C@H]1O [ATP] | – | – | the purified recombinant DacA protein produces c-di-AMP from two molecules of ATP | – | – | –
3 | AGTTGTAATATTAATACTAATAAGTCTTTAAATAATTCAATAATGCCATAACAATAATGGTGTGGGCTAATTAAAATATCTCTAAGCAAAGGTGTTGACATAAAGAGACCATACATGATATTATAGTTATGTTCTGTTTCGGCAGTTTATTTTTTTGAGTAAAAAAGTGACTACCCTTTTACGATACTTTAACGTCACTTTATAGATAAGACACATAACCTTAAAAATAAGATACGAAATT (double strand) [PbusAB EMSA fragment (245 bp)] | – | – | – | – | – | binds
